SMILES strings stand for the structures.

The subject of test [1] is anterior cingulate cortex (ACC). Description: 31P MRSI (3D-CSI, 4 Tesla) of phosphorus metabolites in the anterior cingulate cortex after six weeks of oral citicoline. The test is classed as in vivo, human. The note with it: 6 weeks, doses pooled, mean ± SD. The source says: (§1) ^31P data were collected using a three-dimensional chemical shift imaging (3D-CSI) technique at 4 Tesla in healthy middle-aged individuals. The use of 3D-CSI at high field has several advantages over previous methods: 1) increased spectral dispersion, which allows for increased precision of metabolite quantification; 2) post-processing grid shifting that allows for 3D placement of voxels of interest; and 3) the ability to co-register voxel placement between baseline and post-treatment follow-up. High-energy metabolite peaks quantified in the present study include phosphocreatine (PCr), β-nucleoside triphosphate (NTP, ATP in brain), and inorganic phosphate (Pi). Phospholipid membrane metabolite peaks quantified include anabolites, phosphomonoesters (PME), including phosphoethanolamine (PE) and phosphocholine (PC), and catabolites, phosphodiesters (PDE), including glycerophosphoethanolamine (GPE) and glycerolphosphocholine (GPC). A region of interest approach was used to examine phosphorus metabolite levels in the anterior cingulate cortex (ACC), given the notable age-related decline in frontal brain metabolism and impairment of frontally-mediated cognitive functions. A comparison region placed in the parieto-occipital cortex (POC) was also evaluated. It was hypothesized that oral supplementation with citicoline would improve frontal bioenergetic metabolism via elevations in availability of high-energy phosphates, as well as alteration of membrane phospholipid turnover by providing additional membrane precursors.
(§2) Subjects included sixteen neurologically and psychiatrically healthy adults (mean age=47.3±5.4 years; 8 females, 8 males). Trained research technicians administered a structured clinical psychiatric interview using the Structured Clinical Interview for DSM-IV (SCID). All subjects were free of Axis I diagnoses, neurological illness, severe medical problems, and psychoactive substance use.
(§3) Subjects were randomly assigned to receive a six-week supply of either 500 mg (4 males and 4 females) or 2000 mg (4 males and 4 females) of Cognizin® Citicoline (Kyowa Hakko Kogyo Co., Ltd., JAPAN). Subjects were instructed to take one capsule every day (500 mg group) or four capsules every day in a single dose (2000 mg group) for six weeks. […] Magnetic resonance spectroscopy (MRS) was completed on all subjects in two imaging sessions: one prior to beginning treatment (baseline) and one after completing six weeks of treatment.
(§4) All proton imaging was performed using the proton channel of the dual tuned open face proton-phosphorus TEM whole-head coil from Bioengineering Inc. (Minneapolis, Minn.) operating at a nominal frequency of 170.3 MHz. A 2D gradient-recalled echo imaging sequence (12 seconds duration) was used to acquire a single image in all three spatial dimensions (sagittal, coronal, axial) to quickly determine the patient's position and angle. High-contrast, T1-weighted sagittal, coronal images as well as T1 and T2-weighted transverse images of the entire brain were acquired using a three-dimensional, magnetization-prepared FLASH imaging sequence (3D-MP FLASH), allowing for clear segmentation between grey-matter, white-matter, and CSF, as well as clearly delineating between the different anatomical regions of interest. This approach was used to optimize […] voxel positioning, and volumetric correction in the regions of interest.
(§5) Phosphorus MRSI was performed using the phosphorus channel of the dual tuned proton-phosphorus TEM whole-head coil from Bioengineering Inc. (Minneapolis, Minn.) operating at 68.9 MHz. Phosphorus MRSI data were recorded using a three-dimensional chemical shift imaging (3D-CSI) sequence (Garraux, Neuroimage 10:149-162, 1999). […]

Test [2] has as its system parieto-occipital cortex (POC). Description: 31P MRSI (3D-CSI, 4 Tesla) of phosphorus metabolites in the parieto-occipital cortex (comparison region) after six weeks of oral citicoline. The class given is in vivo, human.
Excerpt: as §1, §2, §3, §4, §5

Test [3] relates to axial brain slice through the frontal and occipital cortices. The note with it: elderly subjects (69.4±5.6 years), 6 weeks of treatment, 1.5 Tesla; cited from earlier work.
The mark [4] stands for this setting: POC, six weeks, at either dose (500 or 2000 mg).

In the case of `C[N+](C)(C)CCOP(=O)(O)OP(=O)([O-])OC[C@H]1O[C@@H](n2ccc(N)nc2=O)[C@H](O)[C@@H]1O` [citicoline, CDP-choline], the “PC, metabolite ratio relative to total 31P signal” value is “.019 ± .008” in test [1] (baseline .026 ± .010, p .02) and “.026 ± .012” in test [2] (POC, 6 weeks, doses pooled, mean ± SD, baseline .023 ± .009, ns). Further, the “GPE, metabolite ratio relative to total 31P signal” value in test [1] (baseline .039 ± .010, p .01) is recorded as “.030 ± .009”; in test [2] (POC, 6 weeks, doses pooled, mean ± SD, baseline .034 ± .011, ns), “.032 ± .014”. For the same compound, the “PE, metabolite ratio relative to total 31P signal” value is “.054 ± .008” in test [1] (baseline .043 ± .015, p .04) and “.058 ± .010” in test [2] (POC, 6 weeks, doses pooled, mean ± SD, baseline .065 ± .009, ns). Besides, the “GPC, metabolite ratio relative to total 31P signal” value in test [1] (baseline .051 ± .015, ns) is on record as “.047 ± .016”; in test [2] (POC, 6 weeks, doses pooled, mean ± SD, baseline .047 ± .017, ns), “.047 ± .010”. Moreover, the “β-NTP, metabolite ratio relative to total 31P signal” value is on record as “.075 ± .014” in test [1] (baseline .066 ± .012, p .05) and “.066 ± .010” in test [2] (POC, 6 weeks, doses pooled, mean ± SD, baseline .063 ± .009, ns). Also, the “PME, metabolite ratio relative to total 31P signal” value in test [1] (baseline .069 ± .016, ns) is reported as “.073 ± .012”; in test [2] (POC, 6 weeks, doses pooled, mean ± SD, baseline .088 ± .015, ns), “.084 ± .011”. The “Pi, metabolite ratio relative to total 31P signal” value in test [1] (baseline .073 ± .012, p .15) is recorded as “.065 ± .022”; in test [2] (POC, 6 weeks, doses pooled, mean ± SD, baseline .072 ± .010, ns) it was “.075 ± .013”. In test [2] (POC region of interest, baseline vs six weeks), the “change in phospholipid membrane metabolites” value is on record as “No significant changes”. Further, the “change in PCr/Pi ratio” value in test [2] (setting [4]) is “No changes”. Moreover, the “change in Pi” value in test [2] (setting [4]) is given as “No changes”. Further, the “change in phosphodiesters (PDE, phospholipid membrane catabolites)” value in test [3] is listed as “significant increase”.
